According to patent publication US20170100367A1, “USE OF ERIBULIN IN THE TREATMENT OF CANCER” (priority 2014, published 2017):

Tests used:
[1] = Pharmacokinetics study of carboplatin in tumor after administration of eribulin in MDA-MB-231 s.c. xenograft model; type: in vivo, nude mice; conditions: for Concentration of Carboplatin in MDA-MB-231 Tumor, AUC (0-8): tumor homogenate
Method: Pharmacokinetics Study of Carboplatin in Tumor after Administration of Eribulin in Human Breast Cancer Cell Line MDA-MB-231 s.c. Xenograft Models
Female nude mice, once acclimatised, were subcutaneously injected with 5×10^6 MDA-MB-231 cells in a 1:1 ratio (50 μL each) with matrigel in a volume of 0.1 mL in phosphate buffered saline, on the right flank area using a 26-gauge needle. This ensured that sufficient mice with tumors in the volume range of approximately 200˜300 mm^3 were available for the study. When the tumors reached an average size of approximately 250 mm^3, 30 mice were selected. The study included an initial experiment containing 24 mice. The first group received eribulin mesylate dosed i.v. as a single dose of 3 mg/kg; for a 20 g animal 200 μL of 0.3 mg/mL eribulin mesylate solution was dosed. To control for tumor size, a vehicle control group (vehicle B) consisting of 27 mice, was introduced before carboplatin dosing. The mice in this group were chosen so that their tumor size matches the tumor size of the eribulin mesylate-treated mice group. Vehicle B group was split in 2 groups, first one of 3 mice which received vehicle (saline) i.v. injection and the second group of 24 mice received carboplatin i.v. injection. On day 1 of vehicle B or on day 15 after the treatment of eribulin, 100 mg/kg carboplatin was administered to all mice intravenously and tumor samples were collected under anesthesia at the assigned time points 0.083, 0.25, 0.5, 1, 4, 8, 24, and 48 hours (n=3 for each time point). Tumors were homogenized with 3 times their respective weights of 1×PBS using a Mini Bead Beater-96, and the concentration of carboplatin in each tumor homogenate was analyzed by a validated LC-MS method.
The PK parameters of carboplatin in tumors were calculated using a non-compartmental approach (Pheonix/WinNonlin v. 6.3, Pharsight; Mountain View, Calif.). The time point at which the concentration of carboplatin highest was denoted as tmax. The highest concentration of carboplatin was denoted as Cmax. The observed area under the tumor concentration versus time curve from time zero to the last quantifiable time point (AUC (0-t)) and to infinity (AUC (0-inf)) were calculated using the trapezoidal method. The AUC (0-inf) was calculated as AUC (0-t)+AUC extrap, where AUC extrap represents the extrapolated AUC from the last quantifiable time point (Clast) to infinity, and was calculated as Clast/λZ. Lamda z (λZ), slope of the concentration versus time curve during the terminal phase, was determined by linear regression.
The mean, standard deviation (SD) and percent coefficient of variation (% CV) of tumor concentrations were calculated using Excel 2010 (Microsoft, Redmond, Wash.). The mean, SD, and % CV for the PK parameters of carboplatin were determined in WinNonlin or Excel 2010. […]
An AB Sciex (Foster City, Calif.) API5000 mass spectrometer, with electrospray ionization under positive ion mode, was used for sample analysis. The collision-activated dissociation (CAD) with N2 was used to generate structure characteristic product ions for quantitation.
The peak areas of carboplatin were integrated using Analyst 1.6 (AB Sciex, Foster City, Calif.), and the areas were imported into Watson 7.2 (Thermo Fisher Scientific, Waltham, Mass.). Internal standard, tolbutamide, was added to each sample, excluded blank without IS, however IS was not used for quantitation due to inconsistent instrument response of tolbutamide in all analytical runs. […]

[2] = system: human breast cancer cell line MDA-MB-231 s.c. xenograft; test: Antitumor effect of capecitabine after eribulin treatment in MDA-MB-231 s.c. xenograft model; type: in vivo, nude mice; conditions: capecitabine 540 mg/kg QD8 p.o. after eribulin 1.0 mg/kg QD1 i.v.; MDA-MB-231 xenograft; FIG. 1
Method: Antitumor Effect of Capecitabine after Eribulin Treatment in Human Breast Cancer Cell Line MDA-MB-231 s.c. Xenograft Models
MDA-MB-231 cells were cultured with RPMI 1640 medium containing 10% (v/v) FBS. Cultured tumor cells were suspended in 50% (v/v) BD Matrigel (BD bioscience, San Jose, Calif.) at a density of 10×10^7 cells/mL for s.c. inoculation into nude mice. A 0.1-mL aliquot of the cell suspension was transplanted subcutaneously into the right flank region of mice. Tumor volumes were calculated according to the following formula: (width [mm]^2×length [mm])/2. Tumor weights were calculated according to the following formula: tumor volume (mm^3)×1 (mg/mm^3). In the MDA-MB-231 xenograft model, when the mean tumor volume reached between 100 and 300 mg (1 mm^3=1 mg) on day 1, nude mice were randomly divided into each group. Control (no treatment); capecitabine, 540 mg/kg, QD8, p.o.; or eribulin, 1.0 mg/kg, QD1, i.v. was administered on day 1. In the eribulin group, eribulin-treated mice were randomly divided into two groups. […] The administration volume (0.1 mL/10 g body weight) was calculated based on the body weight before administration. The tumor volume was measured two times per week. […] The data was analyzed by the Dunnett multiple comparison test to compare two groups (GraphPad Prism version 6.02 (GraphPad Software Inc., La Jolla, Calif.)). […]

[3] = eribulin mesylate 3 mg/kg i.v., carboplatin 100 mg/kg i.v. on day 15

Row | SMILES | Concentration of Carboplatin in MDA-MB-231 Tumor, AUC (0-8) ([1]; Eribulin pretreatment (eribulin mesylate 3 mg/kg i.v. single dose), carboplatin 100 mg/kg i.v. on day 15) [ng·h/g] | Concentration of Carboplatin in MDA-MB-231 Tumor, AUC (0-8) ([1]; Vehicle B group (no eribulin), carboplatin 100 mg/kg i.v.) [ng·h/g] | AUC (0-8) of carboplatin in tumor, eribulin pretreatment group relative to Vehicle B group [1, 3] | Cmax of carboplatin in tumor, eribulin pretreatment group relative to Vehicle B group [1, 3] | exposure of carboplatin in tumors ([1]; eribulin pretreatment group mice, Table 1, FIG. 4) | antitumor activity of capecitabine with eribulin pretreatment compared with that without pretreatment [2]
1 | N.N.O=C([O-])C1(C(=O)[O-])CCC1.[Pt+2] [Carboplatin, carboplatin] | 50504.02 | 36864.98 | about 1.37 fold | about 2.20 fold | high exposure | 
2 | CCCCCOC(=O)Nc1nc(=O)n([C@@H]2O[C@H](C)[C@@H](O)[C@H]2O)cc1F [capecitabine] |  |  |  |  |  | significantly enhanced
